These results are taken from patent US20150352134A1, “COMPOSITION FOR TOPICAL SKIN APPLICATION CONTAINING GINSENOSIDE F2 DERIVED FROM HYDROPONIC GINSENG” (AMOREPACIFIC CORPORATION, priority 2012, published 2015).

In one assay the test system is 3T3-L1 cells. Put plainly: Lipogenesis inhibition in 3T3-L1 cells (Sudan III dyeing). Format: cell-based, mouse. The note with it: 50 µM. As for the experimental part: The mouse fibroblast cell line, 3T3-L1 cells are immobilized in a 6-well culture plate filled with Dulbecco's modified eagle's medium (DMEM) (GIBCO BRL, Life Technologies, Inc.) containing 10% fetal bovine serum (FBS) at an amount of 1×10^5 cells/well. After 2 days, the used medium is replaced with a new DMEM (containing 10% FBS) medium to culture the cells for 2 days. […] After 5 days, the used DMEM medium is replaced with a normal medium (DMEM containing 10% FBS). The cells are cultured and observed until they are morphologically changed into fat cells. In order to evaluate the ginsenoside F2 in regards to the inhibitory effect on the fat accumulation in the fat cells, the completely differentiated 3T3-L1 fat cells are dyed with Sudan III ([…], Sigma-Aldrich). The fat cells are immobilized with 4% para-formaldehyde (pH 7.2) at the room temperature in a phosphate buffer solution. The fat cells are washed with phosphate-buffered saline (PBS) and then dyed with Sudan III. The picture of the fat cells is taken for visual evaluation. The control uses a medium using neither a test substance nor a comparative substance. The comparative control group is treated with 50 μM caffeine. The fat accumulation inhibitory ability is evaluated based on the degree of dying. The degree of dying is graded +++, ++, +, and - in the decreasing order.

Assay [1] deals with prostaglandin generation in macrophagocytes collected from the abdominal cavity of a mouse. The experiment in a line: Prostaglandin generation inhibition in LPS-treated macrophagocytes (ELISA). Type of assay: cell-based. The note with it: 100 μl of ginsenoside F2. As for the experimental part:
The inflammatory effect is evaluated in terms of the inhibitory effect on prostaglandin generation. Ginsenoside F2 is used to measure the effect on macrophagocytes. Firstly, macrophagocytes collected from the abdominal cavity of a mouse are treated with aspirin to have the final concentration of 500 µM, causing irreversible inhibition on the activity of cyclooxygenase (COX) remaining in the macrophagocytes. Then, 100 μl of the suspension is put in each well of a 96-well culture plate and cultured in an incubator under the conditions of 5% CO2 and 37° C. for 2 hours to immobilize the macrophagocytes on the surface of the container. Subsequently, the immobilized macrophagocytes are washed with PBS three times and used in the inflammatory improvement test. […] Then, the macrophagocytes are treated with 100 μl of ginsenoside F2, and the isolated prostaglandin is quantitatively analyzed by way of ELISA (Enzyme-Linked ImmunoSorbent Assey).
In this regard, the prostaglandin generation inhibitory activity of the ginsenoside F2 is determined by the reduced amount of prostaglandin generated in the LPS-treated group in comparison with the case of the control in terms of the percentage amount of the prostaglandin decreased by treatment with LPS and the sample, while the difference in the amount of the generated prostaglandin between the LPS-treated group and the control group is set to 100%.

As to `Cn1c(=O)c2c(ncn2C)n(C)c1=O` [Comparative group, caffeine, reference compound], in the assay with 3T3-L1 cells, the “Inhibition rate (%) (degree of dying with Sudan III)” value is reported as “+”. Regarding `CC(=O)Oc1ccccc1C(=O)O` [Control (aspirin-treated group), aspirin, reference compound], in assay [1], the “prostaglandin generation (Blank = 100%)” value was 25.0%.
